# Measurements taken from patent publication US20250235411A1, “COMPOSITIONS AND METHODS FOR DELIVERY OF AGENTS” (Kernal Biologics, Inc., priority 2021, published 2025).
# Assays:
# B6 albino mice = assay: In vivo luciferase quantitation, Example 1 (IVIS, in vivo and ex vivo lung, liver, spleen); set-up: species or system mouse; details: lipid added at 50 mol % to liver targeting LNPs
# Experimental: Luciferase mRNA was formulated in LNPs containing a cationic ionizable lipid LIP001, cholesterol, DSPC, and PEG-DMG, in the presence or absence of the cationic lipid or cationic ionizable lipid pKa>7 according to the following molar ratios:
# (§1) The ratio of the sum of ionizable amines and cationic quaternary ammonium ions to mRNA phosphates was 6. Lipids were dissolved in ethanol and mRNA was dissolved in 50 mM Citrate buffer pH 5.0. The organic and aqueous phases were combined at a flow rate of 12 mL/min on a Precision Nanosystems NanoAssemblr at a ratio of 3:1 (aqueous: organic). The product was immediately diluted to 16.5% ethanol using MilliQ water. The diluted product was dialyzed against a volume of 50 mM Tris pH 7.5 45 mM NaCl that was 200-fold in excess. The dialyzed product was concentrated using Amicon Ultra 100 kDa centrifuge tubes and sterile filtered. mRNA concentration and encapsulation was assessed by the Invitrogen Ribogreen assay.
# (§2) LNPs were administered to B6 albino mice via the tail vein at a dose of 0.3 mg/kg. After six hours bioluminescence was measured using an IVIS Spectrum imager. Mice were treated with 150 mg/kg luciferin substrate administered via intraperitoneal injection. Immediately following the in vivo image mice were euthanized and the lung, liver and spleen were harvested for ex vivo imaging.
# BALB/c mice = assay: In vivo luciferase quantitation, Example 4 (cationic ionizable lipid pKa>7 LNPs); set-up: species or system mouse; details: LIP021 LNPs with LIP001 or without lipid <7 pKa
# Experimental: as §1, with “phosphates in the LNP” for “phosphates”, “300-fold” for “200-fold”
# as §2, with “BALB/c” for “B6 albino”, “0.5” for “0.3”, “eighteen” for “six”
Structure (SMILES),shift of distribution of luciferase expression to the lungs (B6 albino mice) [fold],"lung targeting, ex vivo bioluminescence (FIG. 10-11) (BALB/c mice)"
"CC(C)CCC[C@@H](C)[C@H]1CC[C@H]2[C@@H]3CC=C4C[C@@H](OC(=O)NCCN(C)C)CC[C@]4(C)[C@H]3CC[C@]12C.Cl [DC Cholesterol, DC- Cholesterol]",~40,
"CCCCC/C=C\C/C=C\CCCCCCCC(=O)OCC(COC(=O)CCC(OCCCCCCCC)OCCCCCCCC)COC(=O)NCCCN1CCC(O)CC1 (centres unmarked) [LIP021, 3-((4,4-bis(octyloxy)butanoyl)oxy)-2-((((3-(4-hydroxy-piperidin-1-yl)propyl)carbamoyl)oxy)methyl) propyl (9Z,12Z)-octadeca-9,12-dienoate]",,does not exhibit a lung-targeting effect
